According to patent EP0447704A1, “N-Acylated azacyclic compounds, processes for their preparations and their use as medications” (Smithkline Beecham Farmaceutici S.p.A., priority 1990, dated 1991):
Structures can show the parent of a compound that is named as a salt.

Columns and labels:
mice [1] = experiment: p-phenylquinone-induced abdominal writhing test in mice; format: in vivo, Male Charles River mice (Swiss Strain); conditions: subcutaneous, 20 min pretreatment, graded protection, limits in brackets; for ED50: Mus musculus, sc, 20 min, read-out: ANALGESIA M. WRITHING (GRADED) ED50
Description: A) p-phenylquinone-induced abdominal writhing test in mice
The methodology employed is based on that described by Sigmund et al, Proc. Soc. Exptl. Biol. 95, 729/1957, modified by Milne and Twomey, Agents and Actions, 10, 31/1980.
Male Charles River mice (Swiss Strain), 25-36g body weight, were used. Animals were allowed food and water ad libitum and were randomized into groups of 10 prior to experimentation. Test compounds were dissolved in either distilled water or distilled water plus 0.1 M AMS, and administered by the subcutaneous route in a final volume of 10 ml/Kg. Control animals received 10 ml/Kg of the appropriate vehicle alone. Following a pretreatment period of 20 min., mice were injected intraperitoneally with p-phenylquinone, 2 mg/Kg at 37 °C in a final volume of […]. […] During this period the number of abdominal writhing responses per animal were recorded where writhing consists of an intermittent contraction of the abdomen associated with hind leg extension.
The degree of antinociceptive protection afforded by the test compound was determined as the mean number of writhing responses observed in the treated group (T) expressed as a percentage of the mean number of writhing responses in the control group (C) according to the following formula: [1-(T/C]x100% = % graded protection

mice [2] = experiment: Tail-flick test in mice; format: in vivo, Male Charles River mice (Swiss Strain); conditions: for ED50: Mus musculus, 0.5 h, read-out: ANALGESIA M. TAIL-FLICK (QUANTAL) ED50; for ED50 / ANALGESIA M. TAIL-FLICK (QUANTAL) ED50: subcutaneous, 30 min pretreatment, quantal protection, limits in brackets; for ANALGESIA M. TAIL-FLICK (QUANTAL) ED50: 30 min; for M. TAIL-FLICK (QUANTAL) % protection: at 10 mg
Description: B) Tail-flick test in mice
The methodology employed is based on that described by D'Amour and Smith, J. Pharmacol. Exp. Ther. 72, 74/1941.
Male Charles River mice (Swiss Strain), 22-34g body weight were used. Animals were allowed food and water ad libitum and were randomized into groups of 10 prior to experimentation.
Test compounds were dissolved in either distilled water or distilled water plus 0.1 M AMS and administered by the subcutaneous route in a final volume of 10 ml/Kg. Control animals received 10 ml/kg of the appropriate vehicle alone. Following a pretreatment period of 30 min., the mice were again placed under the heat source and the reaction tine re-determined.
Percentage quantal protection was determined as the number of mice in which the reaction time was doubled compared to pretreatment values, expressed as a percentage of the total number of mice in the group.

Structure (SMILES): CC1(C)CCCN(C(=O)Cc2ccc(C(F)(F)F)cc2)C1CN1CCCC1 (racemic) [Example 10, 1-(4-trifluoromethylphenyl)acetyl-2-(pyrrolidin-1-yl)methyl-3,3-dimethyl piperidine hydrochloride]
- ED50 (mice [1]): 0.023 mg/kg
- ED50 (mice [2]; sc): 0.116 mg/kg

Structure (SMILES): CC1CCCN(C(=O)Cc2ccc(Cl)c(Cl)c2)C1CN1CCCC1 (single isomer, unassigned) [Example 1, 1-(3,4-dichlorophenyl)acetyl-2-(pyrrolidin-1-yl)methyl-3-methyl piperidine hydrochloride hemihydrate diasteroisomer A]
- ANALGESIA M. TAIL-FLICK (QUANTAL) ED50 (mice [2]): 0.405 (0.230-0.607) mg/Kg sc

Structure (SMILES): CC1CCCN(C(=O)Cc2ccc(Cl)c(Cl)c2)C1CN1CCCC1 (single isomer, unassigned) [Example 2, 1-(3,4-dichlorophenyl)acetyl-2-(pyrrolidin-1-yl)methyl-3-methyl piperidine hydrochloride diasteroisomer B]
- ANALGESIA M. WRITHING (GRADED) ED50 (mice [1]): 0.091 (0.075-0.112) mg/Kg sc
- ANALGESIA M. TAIL-FLICK (QUANTAL) ED50 (mice [2]): 0.147 (0.091-0.237) mg/Kg sc

Structure (SMILES): CC1CCCC(CN2CCCC2)N1C(=O)Cc1ccc(Cl)c(Cl)c1 (single isomer, unassigned; diastereoisomer a) [Example 6, 1-(3,4-dichlorophenyl)acetyl-2-(pyrrolidin-1-yl)methyl-6-methyl piperidine hydrochloride hemihydrate Diastereoisomer A]
- M. TAIL-FLICK (QUANTAL) % protection at single dose (mice [2]; sc, 1.78 mg/Kg): (1.78 mg/Kg 60%)

Structure (SMILES): O=C(Cc1ccc(Cl)c(Cl)c1)N1CCCC(O)C1CN1CCCC1 (single isomer, unassigned; diastereoisomer a) [Example 7, 1-(3,4-dichlorophenyl)acetyl-2-(pyrrolidin-1-yl)methyl-3-hydroxy piperidine hydrochloride diastereoisomer A trans]
- ED50 (mice [1]): 0.141 mg/kg
- ED50 (mice [2]; sc): 0.825 mg/kg
- DURATION OF ACTION M. TAIL-FLICK (GRADED) % ACTIVITY AT MTFQ ED50 30' (mice [2]; dose = mouse tail-flick quantal ED50, 30'): 87%
- DURATION OF ACTION M. TAIL-FLICK (GRADED) % ACTIVITY AT MTFQ ED50 90' (mice [2]; dose = mouse tail-flick quantal ED50, 90'): 39%

Structure (SMILES): O=C(Cc1ccc(Cl)c(Cl)c1)N1CCCC(O)C1CN1CCCC1 (single isomer, unassigned; diastereoisomer b) [Example 8, 1-(3,4-dichlorophenyl)acetyl-2-(pyrrolidin-1-yl)methyl-3-hydroxy piperidine hydrochloride diastereoisomer B cis]
- M. TAIL-FLICK (QUANTAL) % protection (mice [2]; sc): at 10 mg = 20% protection

Structure (SMILES): CC1(C)CCCN(C(=O)Cc2ccc3c(c2)CCCC3=O)C1CN1CCCC1 (stereo not drawn) [Example 13, 1-[1-oxo-3,4-dihydro-(2H)-napht-6-yl]acetyl-2-(pyrrolidin-1-yl)methyl-3,3-dimethyl piperidine]
- M. TAIL-FLICK (QUANTAL) % protection (mice [2]; sc): at 10 mg = 60% protection
